Patent US8753648B2 (priority 2002, dated 2014)

Key:
[1] = test system: CV-1 cells; conditions: African green monkey
[2] = test system: RK44.20 cells; conditions: rabbit
[3] = test system: cowpox virus; conditions: mouse, in vivo; cited from earlier work
[4] = test system: cowpox virus; conditions: mouse, in vivo; cited from earlier work; remark: listed apart in the source

| SMILES | AZT concentration with toxic effect on cells [1] [mg/mL] | AZT concentration with toxic effect on cells [2] [mg/mL] | effect on mortality [3] | effect on death [4] |
| --- | --- | --- | --- | --- |
| Cc1cn([C@H]2C[C@H](N=[N+]=[N-])[C@@H](CO)O2)c(=O)[nH]c1=O [AZT, 3′-azido-2′,3′-dideoxythymidine] | > 1.5 | > 1.5 | – | – |
| Nc1ccn(C[C@@H](CO)OCP(=O)(O)O)c(=O)n1 [Cidofovir] | – | – | reduce mortality | only delayed but did not prevent death |
